Data as given in patent US9284333B2, “Fused pyrroledicarboxamides and their use as pharmaceuticals” (SANOFI, priority 2012, dated 2016).

Target: Human TASK-1 channels (Homo sapiens (Human), UniProt O14649)
Assay: Determination of the activity on the TASK-1 channel in Xenopus oocytes (two-microelectrode voltage clamp)
Assay type: cell-based
Conditions: for IC50: human TASK-1 expressed in Xenopus oocytes, room temperature, read-out: IC50 value for TASK-1 inhibition
In short: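 Xenopus oocytes were injected with human TASK-1 cRNA and recorded two days later by two-microelectrode voltage clamp, holding at −90 mV with 500 ms steps to 40 mV. Superfusion used ND96, pH 7.4, at room temperature, with rising compound concentrations; percentage inhibition of control current was fitted to a dose-response curve for IC50.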

Human TASK-1 channels, sequence (O14649 whole entry): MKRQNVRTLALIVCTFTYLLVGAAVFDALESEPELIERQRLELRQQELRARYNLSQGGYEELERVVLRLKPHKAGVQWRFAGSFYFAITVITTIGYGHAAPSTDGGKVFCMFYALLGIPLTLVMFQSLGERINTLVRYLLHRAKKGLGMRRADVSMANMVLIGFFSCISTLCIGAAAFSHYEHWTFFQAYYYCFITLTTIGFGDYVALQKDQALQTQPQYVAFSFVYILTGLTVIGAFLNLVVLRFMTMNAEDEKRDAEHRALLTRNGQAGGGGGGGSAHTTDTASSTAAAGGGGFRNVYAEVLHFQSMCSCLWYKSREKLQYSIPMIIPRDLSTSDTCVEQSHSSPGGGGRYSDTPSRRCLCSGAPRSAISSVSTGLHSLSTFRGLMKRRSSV

IC50 [nM]	inhibition at 5 µM (compound concentration 5 μM) [%]	SMILES
68		CC[C@@H](NC(=O)c1cc(C(=O)N2CCC[C@@H]2C)n2c1COCC2)c1ccc(C(F)(F)F)cc1 [16f, 6-((S)-2-Methyl-pyrrolidine-1-carbonyl)-3,4-dihydro-1H-pyrrolo[2,1-c][1,4]oxazine-8-carboxylic acid [(R)-1-(4-trifluoromethyl-phenyl)-propyl]-amide]
200		CC[C@@H](NC(=O)c1cc(C(=O)N2Cc3ccccc3C2)n2c1COCC2)c1ccccc1 [16ih, 6-(1,3-Dihydro-isoindole-2-carbonyl)-3,4-dihydro-1H-pyrrolo[2,1-c][1,4]oxazine-8-carboxylic acid ((R)-1-phenyl-propyl)-amide]
70		CC[C@@H](NC(=O)c1cc(C(=O)N[C@@H](C)c2ccc(F)cc2)n2c1COCC2)c1ccccc1 [16ht, 3,4-Dihydro-1H-pyrrolo[2,1-c][1,4]oxazine-6,8-dicarboxylic acid 6-{[(S)-1-(4-fluoro-phenyl)-ethyl]-amide} 8-[((R)-1-phenyl-propyl)-amide]]
380		CC[C@@H](NC(=O)c1cc(C(=O)N2CCC[C@@H]2COC)n2c1COCC2)c1ccccc1 [16eo, 6-((R)-2-Methoxymethyl-pyrrolidine-1-carbonyl)-3,4-dihydro-1H-pyrrolo[2,1-c][1,4]oxazine-8-carboxylic acid ((R)-1-phenyl-propyl)-amide]
74		CC[C@@H](NC(=O)c1cc(C(=O)N[C@H](C)C2CC2)n2c1CCCC2)c1ccccc1 [16mw, 5,6,7,8-Tetrahydro-indolizine-1,3-dicarboxylic acid 3-[((R)-1-cyclopropyl-ethyl)-amide] 1-[((R)-1-phenyl-propyl)-amide]]
	81	C[C@H]1CCCN1C(=O)c1cc(C(=O)NCc2ccccc2Cl)c2n1CCOC2 [16an, 6-((S)-2-Methyl-pyrrolidine-1-carbonyl)-3,4-dihydro-1H-pyrrolo[2,1-c][1,4]oxazine-8-carboxylic acid 2-chloro-benzylamide]
170		CC[C@@H](NC(=O)c1cc(C(=O)NCc2nccs2)n2c1COCC2)c1ccccc1 [16il, 3,4-Dihydro-1H-pyrrolo[2,1-c][1,4]oxazine-6,8-dicarboxylic acid 8-[((R)-1-phenyl-propyl)-amide] 6-[(thiazol-2-ylmethyl)-amide]]
290		O=C(N[C@H](c1ccc(F)cc1)C1CC1)c1cc(C(=O)N2CCCC2)n2c1COCC2 [16dh, 6-(Pyrrolidine-1-carbonyl)-3,4-dihydro-1H-pyrrolo[2,1-c][1,4]oxazine-8-carboxylic acid [(S)-cyclopropyl-(4-fluoro-phenyl)-methyl]-amide]
300		CC[C@@H](NC(=O)c1cc(C(=O)NC(C)c2ncccn2)c2n1CCOC2)c1ccccc1 (mixture of isomers) [16jz, 3,4-Dihydro-1H-pyrrolo[2,1-c][1,4]oxazine-6,8-dicarboxylic acid 6-[((R)-1-phenyl-propyl)-amide] 8-[(1-pyrimidin-2-yl-ethyl)-amide]]
160		CC[C@@H](NC(=O)c1cc(C(=O)N2CCC[C@@H]2C)n2c1COCC2)c1ccc(F)c(C(F)(F)F)c1 [16bo, 6-((S)-2-Methyl-pyrrolidine-1-carbonyl)-3,4-dihydro-1H-pyrrolo[2,1-c][1,4]oxazine-8-carboxylic acid [(R)-1-(4-fluoro-3-trifluoromethyl-phenyl)-propyl]-amide]
340		CC[C@@H](NC(=O)c1cc(C(=O)Nc2nc(C)c(C)s2)c2n1CCCC2)c1ccccc1 [16me, 5,6,7,8-Tetrahydro-indolizine-1,3-dicarboxylic acid 3-[((R)-1-phenyl-propyl)-amide] 1-[(4,5-dimethyl-thiazol-2-yl)-amide]]
160		CC[C@@H](NC(=O)c1cc(C(=O)N(C)CCOC)n2c1CCCC2)c1ccccc1 [16mh, 5,6,7,8-Tetrahydro-indolizine-1,3-dicarboxylic acid 3-[(2-methoxy-ethyl)-methyl-amide] 1-[((R)-1-phenyl-propyl)-amide]]
1200		O=C(NC(c1ccccc1)c1ccccc1)c1cc(C(=O)N2CCCC2)n2c1COCC2 [16di, 6-(Pyrrolidine-1-carbonyl)-3,4-dihydro-1H-pyrrolo[2,1-c][1,4]oxazine-8-carboxylic acid benzhydryl-amide]
9000		C[C@H]1CCCN1C(=O)c1cc(C(=O)N[C@H]2CCc3nc(C(F)(F)F)ccc32)c2n1CCOC2 (racemic) [16cu, 6-((S)-2-Methyl-pyrrolidine-1-carbonyl)-3,4-dihydro-1H-pyrrolo[2,1-c][1,4]oxazine-8-carboxylic acid ((S)-2-trifluoromethyl-6,7-dihydro-5H-[1]pyrindin-5-yl)-amide]
450		CC[C@@H](NC(=O)c1cc(C(=O)N(CC)Cc2nnn(C)n2)n2c1COCC2)c1ccccc1 [16rp, 3,4-Dihydro-1H-pyrrolo[2,1-c][1,4]oxazine-6,8-dicarboxylic acid 6-[ethyl-(2-methyl-2H-tetrazol-5-ylmethyl)-amide] 8-[((R)-1-phenyl-propyl)-amide]]
170		CCC(NC(=O)c1cc(C(=O)N[C@H](CC)c2ccccc2)c2n1CCOC2)c1nccs1 (stereo partly drawn) [16ij, 3,4-Dihydro-1H-pyrrolo[2,1-c][1,4]oxazine-6,8-dicarboxylic acid 8-[((R)-1-phenyl-propyl)-amide] 6-[(1-thiazol-2-yl-propyl)-amide]]
240		CC[C@@H](NC(=O)c1cc(C(=O)N[C@H](CC)c2cccc(O)n2)n2c1COCC2)c1ccccc1 [16rh, 3,4-Dihydro-1H-pyrrolo[2,1-c][1,4]oxazine-6,8-dicarboxylic acid 6-{[(R)-1-(6-hydroxy-pyridin-2-yl)-propyl]-amide} 8-[((R)-1-phenyl-propyl)-amide]]
180		CCOC(=O)CNC(=O)c1cc(C(=O)N[C@H](CC)c2ccccc2)c2n1CCOC2 [16k, {[8-((R)-1-Phenyl-propylcarbamoyl)-3,4-dihydro-1H-pyrrolo[2,1-c][1,4]oxazine-6-carbonyl]-amino}-acetic acid ethyl ester]
1400		CC[C@@H](NC(=O)c1cc(C(=O)N2CCC[C@@H]2C)n2c1COCC2)c1ccc(OC)nc1 [16ai, 6-((S)-2-Methyl-pyrrolidine-1-carbonyl)-3,4-dihydro-1H-pyrrolo[2,1-c][1,4]oxazine-8-carboxylic acid [(R)-1-(6-methoxy-pyridin-3-yl)-propyl]-amide]
150		CCC[C@@H](NC(=O)c1cc(C(=O)N2CCC[C@@H]2C)n2c1COCC2)c1ccc(C(F)(F)F)nc1 [16bi, 6-((S)-2-Methyl-pyrrolidine-1-carbonyl)-3,4-dihydro-1H-pyrrolo[2,1-c][1,4]oxazine-8-carboxylic acid [(R)-1-(6-trifluoromethyl-pyridin-3-yl)-butyl]-amide]
970		CC[C@@H](NC(=O)c1cc(C(=O)N2CCC[C@@H]2C)n2c1COCC2)c1ccc(C(F)(F)F)cc1C(F)(F)F [16cp, 6-((S)-2-Methyl-pyrrolidine-1-carbonyl)-3,4-dihydro-1H-pyrrolo[2,1-c][1,4]oxazine-8-carboxylic acid [(R)-1-(2,4-bis-trifluoromethyl-phenyl)-propyl]-amide]
36		CC[C@@H](NC(=O)c1cc(C(=O)NCCC2CC2)n2c1COCC2)c1ccccc1 [16gk, 3,4-Dihydro-1H-pyrrolo[2,1-c][1,4]oxazine-6,8-dicarboxylic acid 6-[(2-cyclopropyl-ethyl)-amide] 8-[((R)-1-phenyl-propyl)-amide]]
730		CCC(NC(=O)c1cc(C(=O)N[C@H](CC)c2ccccc2)c2n1CCOC2)c1ccc(C)nc1 (stereo partly drawn) [16ho, 3,4-Dihydro-1H-pyrrolo[2,1-c][1,4]oxazine-6,8-dicarboxylic acid 6-{[1-(6-methyl-pyridin-3-yl)-propyl]-amide} 8-[((R)-1-phenyl-propyl)-amide]]
600		CC[C@@H](NC(=O)c1cc(C(=O)Nc2c(C)noc2C)n2c1COCC2)c1ccccc1 [16hg, 3,4-Dihydro-1H-pyrrolo[2,1-c][1,4]oxazine-6,8-dicarboxylic acid 6-[(3,5-dimethyl-isoxazol-4-yl)-amide] 8-[((R)-1-phenyl-propyl)-amide]]
100		CC[C@@H](NC(=O)c1cc(C(=O)NCC2CC2)n2c1COCC2)c1ccccc1 [16gc, 3,4-Dihydro-1H-pyrrolo[2,1-c][1,4]oxazine-6,8-dicarboxylic acid 6-cyclopropylmethyl-amide 8-[((R)-1-phenyl-propyl)-amide]]
210		CC[C@@H](NC(=O)c1cc(C(=O)N2CCCC2)n2c1COCC2)c1ccccc1Cl [16cy, 6-(Pyrrolidine-1-carbonyl)-3,4-dihydro-1H-pyrrolo[2,1-c][1,4]oxazine-8-carboxylic acid [(R)-1-(2-chloro-phenyl)-propyl]-amide]
620		CC[C@@H](NC(=O)c1cc(C(=O)Nc2c(C)noc2C)c2n1CCOC2)c1ccccc1 [16jk, 3,4-Dihydro-1H-pyrrolo[2,1-c][1,4]oxazine-6,8-dicarboxylic acid 8-[(3,5-dimethyl-isoxazol-4-yl)-amide] 6-[((R)-1-phenyl-propyl)-amide]]
1310		CC[C@@H](NC(=O)c1cc(C(=O)NCc2cccc(S(C)(=O)=O)c2)n2c1COCC2)c1ccccc1 [16gv, 3,4-Dihydro-1H-pyrrolo[2,1-c][1,4]oxazine-6,8-dicarboxylic acid 6-(3-methanesulfonyl-benzylamide) 8-[((R)-1-phenyl-propyl)-amide]]
520		CC[C@@H](NC(=O)c1cc(C(=O)N[C@H](CC)c2cccc(OC)n2)n2c1COCC2)c1ccc(C(F)(F)F)nc1 [16pb, 3,4-Dihydro-1H-pyrrolo[2,1-c][1,4]oxazine-6,8-dicarboxylic acid 6-{[(R)-1-(6-methoxy-pyridin-2-yl)-propyl]-amide} 8-{[(R)-1-(6-trifluoromethyl-pyridin-3-yl)-propyl]-amide}]
180		CC[C@@H](NC(=O)c1cc(C(=O)Nc2ccc(F)cn2)n2c1COCC2)c1ccccc1 [16hc, 3,4-Dihydro-1H-pyrrolo[2,1-c][1,4]oxazine-6,8-dicarboxylic acid 6-[(5-fluoro-pyridin-2-yl)-amide] 8-[((R)-1-phenyl-propyl)-amide]]
